Earlier results in patent publication US10299480B2 (priority 2014, dated 2019).

Key:
[1] = test system: adenovirus; settings: 10 minute exposure, same conditions
[2] = test system: poliovirus
[3] = test system: herpes virus; settings: 10 minute exposure

For N=C(NCCCCCCNC(=N)NC(=N)Nc1ccc(Cl)cc1)NC(=N)Nc1ccc(Cl)cc1.O=C(O)[C@H](O)[C@@H](O)[C@H](O)[C@H](O)CO.O=C(O)[C@H](O)[C@@H](O)[C@H](O)[C@H](O)CO [CHX, Chlorhexidine digluconate], the “Effect on non-enveloped virus” value [1] is given as “virtually no effect”, the “Effect on non-enveloped virus” value [2] is given as “virtually no effect” and the “Reduction of the number of virus particles” value [3] is given as 5-6 times.
